Source: US11053476B2, “Generation of cancer stem cells and use thereof” (EXOSTEM BIOTEC LTD., priority 2016, dated 2021)

Each compound was assayed on CSCs generated from differentiated cancer cells (assay: Self-renewal of CSCs (secondary tumorspheres) generated from differentiated cancer cells, factor added to basic protocol). Conditions: added to second incubation; data not shown.
Assay type: cell-based
Protocol: (§1) In order to generate CSCs in vitro, both primary differentiated cancer cells (primary glioma cells) as well as cells from a cancer cell line (U87 cells) were obtained. Glioma cells and U87 cells were trypsinized, and washed three times with medium +10% FCS. The cells were then resuspended in medium that was brought to a pH of 6.0 and were placed on a rotator and incubated for 45-90 minutes. The cells were then incubated in medium supplemented with EGF and FGF. The cells were optionally kept in mild hypoxic conditions (2-3% oxygen) during this second incubation and were then plated on bacterial plates.
(§2) Tumorspheres formed on these plates within one week and were removed from the cells that had attached to the dish. The tumorspheres were disaggregated and the cells were re-plated at limiting dilution to generate secondary spheroids. The secondary tumorspheres were then characterized for CSC specific markers, the ability to self-renew and the ability to generate tumors that recapitulate the parental tumors.
(§3) Knowing that the basic protocol for generating CSCs (acid, EGF/FGF and two rounds of sphere generation) was successful; several modifications to the protocol were examined. […] Second, a wide range of factors were found, that when supplemented to the EGF and FGF containing media, increased the efficacy of the protocol, either by increasing the number of CSCs produced or by increasing their stemness.
For CCCC(CCC)C(=O)O [Valporic acid], the “efficacy in enhancing dedifferentiation” value was “effective”.
In the case of “insulin: insulin, added to the second incubation”, the “efficacy in enhancing dedifferentiation” value is reported as “effective”.

Same assay, conditions: small molecule added to second incubation; FIG. 6A
Cc1c[nH]c(-c2cnc(NCCNc3ccc(C#N)cn3)nc2-c2ccc(Cl)cc2Cl)n1 [CHIR99021] was tested, and the “effect on rate of self-renewal” value was “increase the rate of self-renewal”.
For Nc1nccc2c1ncn2[C@@H]1C=C(CO)[C@@H](O)[C@H]1O [3-deazaneplanocin A], the “effect on rate of self-renewal” value was “increase the rate of self-renewal”.
With C[C@@H](N)[C@H]1CC[C@H](C(=O)Nc2ccncc2)CC1 [Y-27632] the “effect on rate of self-renewal” value was “increase the rate of self-renewal”.
In the case of N[C@@H]1C[C@H]1c1ccccc1 (racemic) [tranylcypromine], the “effect on rate of self-renewal” value is reported as “increase the rate of self-renewal”.
CCCCCCCCCCCCCC=CC(O)C(CO)NC(=O)CCCCC (stereo not shown) [Ceramide C6] was tested, and the “effect on rate of self-renewal” value was “increase the rate of self-renewal”.
With Nc1ncn([C@H]2C[C@H](O)[C@@H](CO)O2)c(=O)n1 [5-aza-2′-deoxycytidine] the “effect on rate of self-renewal” value was “increase the rate of self-renewal”.
For CCCCCCCCCCCCCC(=O)O[C@@H]1[C@@H](C)[C@@]2(O)[C@@H](C=C(CO)C[C@]3(O)C(=O)C(C)=C[C@@H]23)[C@@H]2C(C)(C)[C@]12OC(C)=O [PMA, phorbol 12-myristate 13-acetate, reference compound], the “effect on rate of self-renewal” value was “increase the rate of self-renewal”.
In the case of O=C(O)CCCc1ccccc1 [4-phenylbutyrate], the “effect on rate of self-renewal” value is reported as “increase the rate of self-renewal”.

What follows are compounds tested on Sox2 (assay: Sox2 expression in generated CSCs, factor added to basic protocol). Conditions: PKC activation; FIG. 6B.
Assay type: cell-based
Protocol: as §1, §2, §3
“PKC alpha: protein kinase C alpha; activators or overexpression” was tested, and the “effect on Sox2 expression” value was “increase Sox2 expression” and the “effectiveness on Sox2 expression compared with PMA” value was “more effective that PMA”.
In the case of CCCCCCCCCCCCCC(=O)O[C@@H]1[C@@H](C)[C@@]2(O)[C@@H](C=C(CO)C[C@]3(O)C(=O)C(C)=C[C@@H]23)[C@@H]2C(C)(C)[C@]12OC(C)=O [PMA, phorbol 12-myristate 13-acetate, reference compound], the “effect on Sox2 expression” value is reported as “increase Sox2 expression”.

What follows are compounds tested on differentiated cancer cells (assay: Efficacy and penetrance of dedifferentiation with transcription and secreted factors). Conditions: expression in the cells or in their media during second incubation or tumorsphere formation.
Assay type: cell-based
Protocol: as §1, §2
Lastly, several transcription factors and secreted factors that are known to enhance stemness or cancer progression were introduced into the differentiated cells during the second incubation or during tumorsphere formation.
With “LIF: transcription or secreted factor expressed in the cells or in their media” the “effect on dedifferentiation brought about by the standard protocol” value was “increase the efficacy and penetrance of the dedifferentiation”.
“STAT3: transcription or secreted factor expressed in the cells or in their media” was tested, and the “effect on dedifferentiation brought about by the standard protocol” value was “increase the efficacy and penetrance of the dedifferentiation”.
“NANOG: transcription or secreted factor expressed in the cells or in their media” was tested, and the “effect on dedifferentiation brought about by the standard protocol” value was “increase the efficacy and penetrance of the dedifferentiation”.
